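Where inhibition never reached the appropriate level, the endpoint shown equals the highest concentration tested. Otherwise, values were interpolated linearly from a five-concentration, 48-hour dose response in 96-well plates. At the GI50, growth is halved.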 Activity calls are given as the source filed them. Rule as the data show it: active = GI50 up to about 1.1 µM and inactive = higher.
What was measured:
Assay in all cases: DTP human tumour cell line panel, 48 h
[1] = test system: OVCAR-3
[2] = test system: 786-0
[3] = test system: MOLT-4
[4] = test system: BT-549
[5] = test system: A498
[6] = test system: IGROV-1
[7] = test system: MDA-MB-231
[8] = test system: SNB-75
[9] = test system: RXF 393
[10] = test system: HOP-62
[11] = test system: COLO 205
[12] = test system: SK-MEL-28
[13] = test system: M14
[14] = test system: ACHN
[15] = test system: SW-620
[16] = test system: OVCAR-8
[17] = test system: T47D
[18] = test system: HOP-92
[19] = test system: HL-60

Structure (SMILES) | GI50 [1] | GI50 [2] | GI50 [3] | GI50 [4] | GI50 [5] | GI50 [6] | GI50 [7] | GI50 [8] | GI50 [9] | GI50 [10] | GI50 [11] | GI50 [12] | GI50 [13] | GI50 [14] | GI50 [15] | GI50 [16] | GI50 [17] | GI50 [18] | GI50 [19]
COC(=O)C1C=CN(N(C)C)C2=C1C(=O)c1c(O)cccc1C2=O (stereo not drawn) | 0.625 µM (active) | 2.62 µM (inactive) | 2.56 µM (inactive) | 1.99 µM (inactive) | 2.81 µM (inactive) | 2.1 µM (inactive) | 1.89 µM (inactive) | 1.66 µM (inactive) | 2.79 µM (inactive) | 2.68 µM (inactive) | 1.5 µM (inactive) | 1.94 µM (inactive) | 1.69 µM (inactive) | 3.37 µM (inactive) | 2.28 µM (inactive) | 2.67 µM (inactive) | 2.32 µM (inactive) | – | –
CCN(CC)CCC(=O)c1ccc(Oc2ccc(C)cc2)cc1 | 17.6 µM (inactive) | 16.5 µM (inactive) | 21.6 µM (inactive) | 18 µM (inactive) | – | 20.1 µM (inactive) | 16.9 µM (inactive) | 20.2 µM (inactive) | 16.4 µM (inactive) | 19.1 µM (inactive) | 23.4 µM (inactive) | 16.9 µM (inactive) | 16.6 µM (inactive) | 21.1 µM (inactive) | 18.7 µM (inactive) | 19.8 µM (inactive) | 18.2 µM (inactive) | 23.7 µM (inactive) | –
O=C(O)C1C2CCC(O2)C1C(=O)NCc1cccnc1 (stereo not drawn) | > 100 µM (inactive) | > 100 µM (inactive) | – | > 100 µM (inactive) | > 100 µM (inactive) | – | > 100 µM (inactive) | > 100 µM (inactive) | > 100 µM (inactive) | > 100 µM (inactive) | > 100 µM (inactive) | > 100 µM (inactive) | > 100 µM (inactive) | > 100 µM (inactive) | > 100 µM (inactive) | – | > 100 µM (inactive) | – | –
COc1ccc(C2=NN(C(=N)S)C(c3ccccc3)C2)cc1 (stereo not drawn) | 35.6 µM (inactive) | 38.3 µM (inactive) | 28 µM (inactive) | 38.2 µM (inactive) | 22.8 µM (inactive) | 48.4 µM (inactive) | – | 29 µM (inactive) | 24.4 µM (inactive) | 38.2 µM (inactive) | 25.8 µM (inactive) | 91 µM (inactive) | 41 µM (inactive) | 36.9 µM (inactive) | 52.2 µM (inactive) | 39.7 µM (inactive) | 29.9 µM (inactive) | 30.5 µM (inactive) | 18.2 µM (inactive)
CC(=O)n1[nH]c(=O)n(-c2ccccc2)c1=O | > 100 µM (inactive) | > 100 µM (inactive) | > 100 µM (inactive) | > 100 µM (inactive) | – | > 100 µM (inactive) | > 100 µM (inactive) | – | > 100 µM (inactive) | > 100 µM (inactive) | > 100 µM (inactive) | > 100 µM (inactive) | > 100 µM (inactive) | > 100 µM (inactive) | > 100 µM (inactive) | > 100 µM (inactive) | > 100 µM (inactive) | – | > 100 µM (inactive)
CCOC(=O)c1c(NS(=O)(=O)c2ccccc2)sc2c1CCCC2 | 22.5 µM (inactive) | 80.5 µM (inactive) | 40.6 µM (inactive) | > 100 µM (inactive) | 98.2 µM (inactive) | 54.8 µM (inactive) | > 100 µM (inactive) | > 100 µM (inactive) | > 100 µM (inactive) | 46.5 µM (inactive) | 44.4 µM (inactive) | – | 81.3 µM (inactive) | 64.6 µM (inactive) | – | 56.8 µM (inactive) | 47.8 µM (inactive) | – | 57.5 µM (inactive)
CCc1n[nH]c(=O)n1NC(=O)/C=C\C(=O)O | > 100 µM (inactive) | > 100 µM (inactive) | > 100 µM (inactive) | > 100 µM (inactive) | > 100 µM (inactive) | > 100 µM (inactive) | > 100 µM (inactive) | > 100 µM (inactive) | > 100 µM (inactive) | > 100 µM (inactive) | > 100 µM (inactive) | – | > 100 µM (inactive) | – | – | > 100 µM (inactive) | > 100 µM (inactive) | – | > 100 µM (inactive)

Reference: ChEMBL document CHEMBL1201862, “PubChem BioAssay data set” (2004)
